From US4567197A, “1,3-Dioxan-5-ylalkenoic acids” (Imperial Chemical Industries PLC, priority 1982, dated 1986)

Assays:
[1] = system: hypertensive effects of the TXA2 mimetic U46619; test: antagonism of the hypertensive effect of U46619 in anaesthetised rats; format: in vivo, rat (Alderley Park strain); conditions: for period of significant reduction of the hypertensive effects of U46619: oral administration, dose not stated
Method: Male rats (Alderley Park strain) are anaesthetised with sodium pentabarbital and blood pressure is monitored at the carotid artery. The TXA2 mimetic agent known as U46619 (e.g. R. L. Jones, et alia, in "Chemistry, Biochemistry and Pharmacological Activity of Prostanoids" eds. S. M. Roberts and F. Scheinmann, at p.211; Pergamon Press, 1979) is administered intravenously via the jugular vein and an ED50 (dose necessary to produce 50% of the maximum hypertensive effect) is established (n=3). The ED50 for U46619 is approximately 5 μg/kg. A test compound is then administered either intravenously via the jugular vein or orally via a cannula directly into the stomach and the animal challenged with an ED50 dose of U46619, five minutes after dosing with test compound and then successively every ten minutes until the hypertensive effect of U46619 is no longer blocked.

[2] = system: rabbit aortal strip; test: rabbit aortal strip test (a), TXA2 as agonist
Method: (§1) As stated earlier, the compounds of formula I are antagonists of one or more of the actions of TXA2, for example certain of its actions on blood platelets, the vasculature and/or the lung.
(a) The standard rabbit aortal strip model devised by Piper and Vane (Nature, 1969, 223, 29-35) using as agonist a freshly prepared sample of TXA2, generated by addition of arachidonic acid (25 μg. to citrated, platelet rich rabbit plasma (250 μl. ) and allowing the mixture to aggregate fully over 90 seconds before use;

[3] = system: bronchoconstriction induced in the Konzett-Rossler guinea-pig model; test: bronchoconstriction test (c), Konzett-Rossler guinea-pig model, induced by U46619; format: in vivo; conditions: 5 mg./kg. i.v., U46619 1-1.5 μg/kg i.v.
From the text: as §1
(c) a standard bronchoconstriction test involving measuring the inhibition by a test compound of the bronchoconstriction induced in the Konzett-Rossler guinea-pig model (as modified by Collier and James, Brit. J. Pharmacol., 1967, 30, 283-307) by intravenous administration of the TXA2 mimetic agent, U46619 at 1-1.5 μg/kg.

[4] = system: citrated, platelet rich human plasma; test: blood platelet aggregation test (b), induced by arachidonic acid; format: cell-based; conditions: aggregation induced by sub-maximal arachidonic acid (25-100 μg/ml.)
Method: as §1
(b) a standard blood platelet aggregation test based on that described by Born (Nature, 1962, 194, 927-929) and involving measuring the inhibition by a test compound of aggregation of citrated, platelet rich human plasma induced by a sub-maximal concentration (in the range 25-100 μg/ml.) of arachidonic acid; and […]

**Q.** How did the “period of significant reduction of the hypertensive effects of U46619” value [1] turn out when CCC1(CC)OC[C@@H](C/C=C\CCCC(=O)O)[C@@H](c2ccccc2)O1 (relative stereo) [Compound 1, 5(Z)-7-(2,2-diethyl-4-phenyl-1,3-dioxan-cis-5-yl)heptenoic acid] was run?
**A.** Its value is “at least 60 minutes”.

**Q.** For O=C(O)CCC/C=C\C[C@@H]1COC2(CCCCC2)O[C@@H]1c1ccccc1 (relative stereo) [Compound 2, 5(Z)-7-(4'-phenyl-[cyclohexanespiro-2'-1,3-dioxan]-cis-5'-yl)heptenoic acid], which “period of significant reduction of the hypertensive effects of U46619” value [1] is on record?
**A.** The value was “at least 60 minutes”.

**Q.** How did the “period of significant reduction of the hypertensive effects of U46619” value [1] turn out when CC1(C)OC[C@@H](C/C=C\CCCC(=O)O)[C@@H](c2cccc(F)c2)O1 (relative stereo) [Compound 3] was run?
**A.** The value was “at least 60 minutes”.

**Q.** For COc1ccccc1[C@H]1OC(C)(C)OC[C@H]1C/C=C\CCCC(=O)O (relative stereo) [Compound 5, 5(Z)-7-[2,2-dimethyl-4-(2-methoxyphenyl)-1,3-dioxan-cis-5-yl]heptenoic acid], which “period of significant reduction of the hypertensive effects of U46619” value [1] is on record?
**A.** The value was “at least 60 minutes”.

**Q.** O=C(O)CCC/C=C\C[C@@H]1CO[C@H](c2ccccc2Cl)O[C@@H]1c1ccccc1 (relative stereo) [Compound 11] was tested. Which “period of significant reduction of the hypertensive effects of U46619” value [1] did it give?
**A.** The value was “at least 60 minutes”.

**Q.** How did the “period of significant reduction of the hypertensive effects of U46619” value [1] turn out when O=C(O)CCC/C=C\C[C@@H]1CO[C@H](c2ccc(Cl)cc2)O[C@@H]1c1ccccc1 (relative stereo) [Compound 13] was run?
**A.** Its value is “at least 60 minutes”.

**Q.** Which “period of significant reduction of the hypertensive effects of U46619” value [1] does the source give for CC(C)[C@H]1OC[C@@H](C/C=C\CCCC(=O)O)[C@@H](c2ccccc2)O1 (relative stereo) [Compound 20] here?
**A.** Its value is “at least 60 minutes”.

**Q.** O=C(O)CCC/C=C\C[C@@H]1CO[C@H](c2ccc3c(c2)OCO3)O[C@@H]1c1ccccc1 (relative stereo) [Compound 21] was tested. Which “period of significant reduction of the hypertensive effects of U46619” value [1] did it give?
**A.** Its value is “at least 60 minutes”.

**Q.** For C[C@H]1OC[C@@H](C/C=C\CCCC(=O)O)[C@@H](c2ccccc2)O1 (relative stereo) [Compound 23, 5(Z)-7-([2,4,5-cis]-2-methyl-4-phenyl-1,3-dioxan-5-yl)heptenoic acid], which “period of significant reduction of the hypertensive effects of U46619” value [1] is on record?
**A.** The value was “at least 60 minutes”.

**Q.** With Cc1ccccc1[C@H]1OC(C)(C)OC[C@H]1C/C=C\CCCC(=O)O (relative stereo) [Compound 24, 5(Z)-7-[2,2-dimethyl-4-(2-methylphenyl)-1,3-dioxan-cis-5-yl]heptenoic acid] as the compound, how does the “period of significant reduction of the hypertensive effects of U46619” value [1] read?
**A.** Its value is “at least 60 minutes”.

**Q.** Which pA2 [2] does the source give for CC1(C)OC[C@@H](C/C=C\CCCC(=O)O)[C@@H](c2ccccc2)O1 (relative stereo) [Example 1, 5(Z)-7-(2,2-dimethyl-4-phenyl-1,3-dioxan-cis-5-yl)heptenoic acid] here?
**A.** The pA2 was 6.28.

**Q.** What about the reduction of bronchoconstriction [3] of the same compound?
**A.** Its reduction of bronchoconstriction is 90%.

**Q.** And the IC50 [4]?
**A.** The IC50 was ~67 µM.

**Q.** CCC1(CC)OC[C@@H](C/C=C\CCCC(=O)O)[C@@H](c2ccccc2)O1 (single isomer, unassigned) [Example 100, (-)-5(Z)-(2,2-diethyl-4-phenyl-1,3-dioxan-cis-5-yl)heptenoic acid] was tested. Which “period of significant reduction (>30%) of the hypertensive effects of U46619” value ([1]; oral, 50 mg./kg.) did it give?
**A.** The value was 120 min.

**Q.** And the “reduction of the hypertensive effects of U46619” value ([1]; oral, 50 mg./kg., for a period of 120 minutes)?
**A.** Its value is > 30%.

**Q.** With CCCCC[C@H](O)/C=C/[C@@H]1[C@@H](C/C=C\CCCC(=O)O)[C@H]2CO[C@@H]1C2 [Example U46619, reference compound] as the compound, how does the ED50 ([1]; Rattus norvegicus, intravenous via jugular vein, n=3, read-out: ED50 (dose necessary to produce 50% of the maximum hypertensive effect)) read?
**A.** The ED50 was ~5 µg/kg.
